Results from patent US20230174936A1, “IMMUNOSUPPRESSANT-RESISTANT T-CELLS FOR ADOPTIVE IMMUNOTHERAPY” (CHARITÉ - UNIVERSITÄTSMEDIZIN BERLIN, priority 2020, published 2023).
“Also recorded” adds a separate entry of the source.

Experiments:
[1] = test system: CMV-specific T-cell products; assay: CMV-specific stimulation at day 21, intracellular cytokines by flow cytometry; format: cell-based, human
Procedure: FIG. 2: Functional profiles of CMV-specific T-cell products with disrupted FKBP12 CMV-specific stimulation of T-cell products at day 21 of culture using antigen-presenting cells (autologous lymphoblastic B-cell lines) pulsed with overlapping peptide pools of CMVIE-1 and CMVpp65 (6 h stimulation). Cytokines were captured in T-cells by addition of Brefeldin A after 1 h of stimulation and cells were stained using a fixation/permeabilization kit and fluorescently 1a-belled antibodies. Data were acquired by multicolor flow cytometry. Immunosuppressants were added where indicated at the following clinically relevant doses: Tac = 6 ng/ml Tacrolimus; CsA ═ 120 ng/ml Cyclosporine A; Tac/Pred/MPA = 6 ng/ml Tacrolimus + 0.57 µg/ml Prednisolone + 2.7 µg/ml Mycophenolic acid. Stars symbolize p-values < 0.05, which were determined by tests for normal distribution (Shapiro-Wilk and Kolmogorov-Smirnov tests), followed by one-way ANOVA (normally distributed data sets) or Friedman test (not normally distributed data sets) and paired t-tests (normally distributed data sets) or Wilcoxon matched pairs signed rank tests (not normally distributed data sets) as posttests. […]

[2] = test system: Regulatory T cells; assay: Treg expansion in medium with or without calcineurin inhibitors; format: cell-based, human; conditions: Tac 6 ng/ml
Procedure: Edited and control Treg cells were subsequently expanded in medium with or without different calcineurin inhibitors and subsequently analysed for cell expansion (A) and with flow cytometry (B+C). […] CTLA4 is known to suppress T cells and modulate pro-inflammatory responses by dendritic cells. […] Light bars are untouched expanded Treg, dark bars are FKBP12^k.o.expanded Treg. Tac was used at 6 ng/ml, CsA was used at 125 ng/ml, which corresponds to pharmacological doses that may, e.g., found in patient serum.
FKBP12^KO and control Treg cells were subsequently expanded in medium with or without different calcineurin inhibitors and subsequently analysed for cell expansion (FIG. 11 A) and with flow cytometry (FIG. 11 B+C). […] CTLA4 is known to suppress T cells and modulate pro-inflammatory responses by dendritic cells.

[3] = test system: K562 cells; assay: NK92 cytotoxicity in co-culture with K562; format: cell-based, human; conditions: 1:1 with K562, n = 1
Procedure: FIG. 19: Killing efficiency pf FKBP12^KO NK cells NK92 were electroporated with Cas9 protein and sgRNA#1(Table 1). After 5 days they were incubated with K562 cells at a ratio of 1:1. Killing capacity was calculated by the reduction in frequency of K562 cells. n = 1.
We performed a proof-of-principle experiment to confirm feasibility of FKBP12^KO in the NK cell line NK92. Four days prior to the experiment, FKBP12^KO NK92 cells were electroporated with Cas9 + FKBP12 sgRNA#1 (Table 1). NK cell cytotoxicity was assessed by co-culture with the MHC class I deficient erythroleukemia cell line K562. To this end, NK92 and CFSE-labeled K562 cells were mixed at a 1:1 ratio. After a total of 8 hours, the reaction was stopped by washing with cold 1X PBS. The cells were stained with Life Dead UV before fixation and permeabilization (IC Fix/Perm Kit, Thermo Fisher). Fixation was performed for 30 minutes at RT. The stained cells were analyzed with a Cytoflex LX. Analysis was performed with FlowJo v10.

[4] = test system: target cells loaded with SARS-CoV-2 peptides

Row | Molecule | proportion of IFNγ-producers ([1]; effect of Tacrolimus on T-cells of CMV-TCPs) | proliferation of untouched Tregs [2] | killing efficiency in non-edited NK92 cells [3] | T-cell-mediated cytotoxic killing of target cells [4] | cytokine producers / T-cell function in the presence of Tacrolimus ([1]; 6 ng/ml Tacrolimus, TCPs edited with the named sgRNA)
1 | C=CC[C@@H]1/C=C(\C)C[C@H](C)C[C@H](OC)[C@H]2O[C@@](O)(C(=O)C(=O)N3CCCC[C@H]3C(=O)O[C@H](/C(C)=C/[C@@H]3CC[C@@H](O)[C@H](OC)C3)[C@H](C)[C@@H](O)CC1=O)[C@H](C)C[C@@H]2OC [Tacrolimus] | significantly reduced | reduced the proliferation | decreased killing efficiency | not affected | –
2 | sgRNA#2: FKBP12-specific guide RNA targeting SEQ ID NO: 1; full sequence SEQ ID NO: 17 (nucleic acid, synthetic chemically modified sgRNA, pattern not given here) guide: GGGCGCACCUUCCCCAAGCGGUUUUAGAGCUAGAAAUAGCAAGUUAAAAUAAGGCUAGUCCGUUAUCAACUUGAAAAAGUGGCACCGAGUCGGUGC | – | – | – | – | superior function in maintaining T-cell function; also recorded: retained physiological levels of cytokine producers
